# Assay results reported in patent US11680253B2, “Transposase-mediated imaging of the accessible genome” (The Board of Trustees of the Leland Stanford Junior …, priority 2016, dated 2023).
# How the values were obtained:
# [1] = test system: human neutrophils; experiment: NETosis of PMA-activated primary human neutrophils (ATAC-see / ATAC-seq); format: cell-based
# Procedure: Human neutrophils were isolated from healthy donor's blood following as described under a Stanford University IRB-approved protocol^23. In brief, 7 ml of heparinized blood was layered on 7 ml Histopaque 1119 (11191-100ML, Sigma Aldrich) in a 15 ml Falcon tube, and the mixture was spun 20 min at 800× g at room temperature. The interphase (lymphocytes and monocytes) was discarded and the granulocyte-rich layer of Histopaque 1119 (diffuse, red phase above RBC pellet) was collected in a new tube. 5 ml of cells were washed with 10 ml of medium (HBSS+), and spun 10 min at 200× g at room temperature. The cells were resuspended in 3 ml DPBS with 0.5% human serum albumin (101-15-50, Lee BioSolutions), and the cell suspension was layered on 10 ml of a discontinuous Percoll gradient (85% to 65% Percoll) and spun 20 min at 800×g at room temperature. The interphase between 70% and 75% Percoll layers were collected in a new 15 ml tube. The tube was added with DPBS with 0.5% human serum albumin up to 15 ml and spun for 10 min at 200× g at room temperature. The cell pellet was resuspended in RPMI-HEPES (10 mM) at 1.5×10^6 cells per ml for neutrophil activation.
# Human neutrophils were stimulated by Phorbol myristate acetate (PMA) as described^23. Briefly, the purified neutrophils were suspended in 3 ml RPMI 1640 with final concentration of 1.5×10^6 per ml in loosen cap 15 ml falcon tube, and incubated in cell culture CO2 incubator (5% CO2, 37° C.) with final concentration of 30 nM PMA for 1 h, 3 h, and 5 h respectively. After 2 h of simulation, protease inhibitor cocktail was added at a 1:200 dilution to both control and simulated tubes. At the respective time points, neutrophils were fixed with 1% formaldehyde for 10 min at room temperature, and fixed neutrophil cells spun down on the glass slide with cytospin 1000 rpm 5 min at room temperature for ATAC-see or immuno-staining.
# The PAD4 inhibition was performed as previously described^25.
# 80% confluent Human HT1080 cells (30-50,000 cells) grown in 8 well chamber slides were fixed with 1% formaldehyde (Sigma, USA) for 10 min and quenched with 0.125 M glycine for 5 min at room temperature. After fixation, slides were put in PBS at 4° C. […] The 50 μl transposase reaction solution was added onto the slide, and the cells on slide were incubated at 37° C. for 30 min. For the imaging and sequencing, slides were mounted using Vectorshield and images were taken with a Zeiss LSM 700. After imaging, the coverslip was removed and cells were lysed with 50 μl of 50 mM Tris-Cl, 1 mM EDTA, 1% SDS, 0.2 M NaCl 5 min on slide at room temperature. The cell lysis was carefully transferred to 1.5 ml eppendorf tube. The glass slide was washed with 50 μl of the same buffer another 3 times and washing solutions were transferred to the same tube carefully. […]
# [2] = target: Tn5 (Escherichia coli, UniProt Q46731, E54K/L372P); settings: 50 mM EDTA, HT1080 cells
# Procedure: HT1080 cells and HeLa cells were grown on secureSlip cell culture system (0515073, GRACE BIO-LABS) until 80-90% confluent and fixed with 1% formaldehyde (Sigma-Aldrich) for 10 min at room temperature. GM12878 cells were fixed with 1% formaldehyde (Sigma) 10 min at room temperature and centrifuged on the glass slide with Cytospin, 1000 rpm for 5 min, 30-50,000 cells per slide.
# ATAC-see: After fixation, the cells (either growing on slide or centrifuged on glass slide with cytospin) were permeabilized with lysis buffer (10 mM Tris-Cl, pH 7.4, 10 mM NaCl, 3 mM MgCl2, 0.01% Igepal CA-630) for 10 min at room temperature. After the permeabilization, the slides were rinsed in PBS twice, and put in humid chamber box at 37° C. The transposase mixture solution (25 μl 2× TD buffer, final concentration of 100 nM Tn5-ATTO-59ON, adding dH2O up to 50 μl) was added on the slide and incubated for 30 min at 37° C. […] After washing, slides were mounted using Vectashield with DAPI (H-1200, Vector labs) for imaging with Leica SP8 or Zeiss 700 or for additional co-staining with Lamin B1 or mitochondria (see the materials and methods above).
compound,measurement,setting,value
NC(=O)[C@H](CCCN=C(N)CCl)NC(=O)c1ccccc1 [Cl-amidine],NETosis,[1]; 200 μM Cl-amidine 30 min before PMA stimulation,inhibited
same,release of free DNA from mononucleosomes,"[1]; PAD4i-treated, after 5 hrs of neutrophil activation",fail to release free DNA from mononucleosomes
O=C(O)CN(CCN(CC(=O)O)CC(=O)O)CC(=O)O [EDTA],"ATAC-see signal, % of control",[2],2.69%±0.04
"CCCCCCCCCCCCCC(=O)O[C@@H]1[C@@H](C)[C@@]2(O)[C@@H](C=C(CO)C[C@]3(O)C(=O)C(C)=C[C@@H]23)[C@@H]2C(C)(C)[C@]12OC(C)=O [PMA, Phorbol myristate acetate]",neutrophils that have released their chromatin into the extracellular space,"[1]; 30 nM PMA, after 3 hrs of stimulation",49.7%
same,neutrophils that have released NETs,"[1]; 30 nM PMA, after 5 hrs of stimulation",59.7%
